For 14 molecules, IC50, MIC and MBC results are on record in ChEMBL document CHEMBL3808371, “Design, synthesis and biological evaluation of diaziridinyl quinone isoxazole hybrids” (Eur J Med Chem, 2016).

SMILES strings stand for the structures. pIC50: −log10 of the molar value. Values after ≈ are worked out from the molar mass of the structure shown. Active and inactive are the calls of the source. Bounds are passed on as bounds.

The test system of one experiment is A549. Description: Cytotoxicity against human A549 cells after 72 hrs by XTT assay. The experiment is classed as functional, cell-based. Particulars: A549, 72 h. Background: Tetrazolium assays rely on reduction of a dye to a coloured formazan, in cell work by metabolically active cells.
Experiment [1] can be described thus: Cytotoxicity against human PC3 cells after 72 hrs by XTT assay. The experiment is classed as functional, cell-based. Particulars: PC-3, 72 h.
Experiment [2] deals with Staphylococcus aureus. Description: Antimicrobial activity against Staphylococcus aureus MLS16 MTCC 2940 after 24 hrs by well diffusion method. The experiment is classed as functional. To be noted: MLS16 MTCC 2940, 24 h.
For experiment [3], the system named is Staphylococcus aureus. Description: Bactericidal activity against Staphylococcus aureus MTCC 96 after 24 hrs by serial dilution method. To be noted: MTCC 96, 24 h. The experiment is classed as functional.
Experiment [4] concerns Raoultella planticola. Description: Antimicrobial activity against Klebsiella planticola MTCC 530 after 24 hrs by well diffusion method. The experiment is classed as functional. Particulars: MTCC 530, 24 h. For orientation: In agar diffusion tests the substance spreads into inoculated agar from a disc or well.
The next experiment deals with Escherichia coli. Briefly: Antimicrobial activity against Escherichia coli MTCC 739 after 24 hrs by well diffusion method. The experiment is classed as functional. To be noted: MTCC 739, 24 h.
Experiment [5] concerns Bacillus subtilis. Description: Bactericidal activity against Bacillus subtilis MTCC 121 after 24 hrs by serial dilution method. The experiment is classed as functional. To be noted: MTCC 121, 24 h.
The subject of the next experiment is Candida albicans. Description: Antimicrobial activity against Candida albicans MTCC 3017 after 24 hrs by well diffusion method. The experiment is classed as functional.
Experiment [6] concerns Micrococcus luteus. Briefly: Bactericidal activity against Micrococcus luteus MTCC 2470 after 24 hrs by serial dilution method. Particulars: MTCC 2470, 24 h. The experiment is classed as functional.
Experiment [7] has as its system Staphylococcus aureus. Description: Antibiofilm activity against Staphylococcus aureus MTCC 96 after 24 hrs by crystal violet staining based assay. The experiment is classed as functional, organism-based. Particulars: MTCC 96, 24 h.
In a further experiment the test system is Pseudomonas aeruginosa. Briefly: Antimicrobial activity against Pseudomonas aeruginosa MTCC 2453 after 24 hrs by well diffusion method. The experiment is classed as functional. Particulars: MTCC 2453, 24 h.
The subject of experiment [8] is Staphylococcus aureus. Briefly: Antimicrobial activity against Staphylococcus aureus MTCC 96 after 24 hrs by well diffusion method. The experiment is classed as functional. To be noted: MTCC 96, 24 h.
The test system of experiment [9] is Staphylococcus aureus. Description: Bactericidal activity against Staphylococcus aureus MLS16 MTCC 2940 after 24 hrs by serial dilution method. The experiment is classed as functional. Particulars: MLS16 MTCC 2940, 24 h.
Experiment [10] concerns Micrococcus luteus. Description: Antimicrobial activity against Micrococcus luteus MTCC 2470 after 24 hrs by well diffusion method. The experiment is classed as functional. Particulars: MTCC 2470, 24 h.
Experiment [11] concerns Bacillus subtilis. Briefly: Antimicrobial activity against Bacillus subtilis MTCC 121 after 24 hrs by well diffusion method. The experiment is classed as functional. Particulars: MTCC 121, 24 h.
Experiment [12] has as its system Raoultella planticola. Description: Antibiofilm activity against Klebsiella planticola MTCC 530 after 24 hrs by crystal violet staining based assay. The experiment is classed as functional, organism-based. To be noted: MTCC 530, 24 h.
For experiment [13], the system named is Raoultella planticola. Description: Bactericidal activity against Klebsiella planticola MTCC 530 after 24 hrs by serial dilution method. The experiment is classed as functional. To be noted: MTCC 530, 24 h.
In experiment [14] the test system is Micrococcus luteus. Description: Antibiofilm activity against Micrococcus luteus MTCC 2470 after 24 hrs by crystal violet staining based assay. The experiment is classed as functional, organism-based. Particulars: MTCC 2470, 24 h.

What is called pIC50 is −log10 of the IC50, conventionally taken in molar units. A lower pIC50 goes with a large IC50. Usually MIC stands for the smallest concentration in the dilution series that meets the test's criterion for growth inhibition. Broadly, the MBC is the smallest concentration meeting the test's criterion for killing. Low values mean greater bactericidal potency, high ones weaker bactericidal potency.

`COc1ccc(OC)c(-c2cc(-c3ccc(C(=O)N4CCCCC4)s3)on2)c1`: the pIC50 (in the experiment with A549; in experiment [1]) was less than 4.52 in each case.

As to `COc1ccc(OC)c(-c2cc(-c3ccc(C(=O)NCC4CC4)s3)on2)c1`, the pIC50 (in the experiment on A549; in [1]) was less than 4.52 throughout.

As for `CCCN(C)C(=O)c1ccc(-c2cc(C3=CC(=O)C=CC3=O)no2)s1`, the pIC50 in the experiment on A549 is less than 4.52; in [1] it was more than 4.52.

As for `CCN(CC)C(=O)c1ccc(-c2cc(C3=CC(=O)C=CC3=O)no2)s1`, the negative logarithm of the IC50 (pIC50) in the experiment on A549 was 5.00; in [1], 5.05.

Take `COc1ccc(OC)c(-c2cc(-c3ccc(C(=O)N(C)Cc4ccccc4)s3)on2)c1`: the negative-log IC50 (pIC50) (with A549; in experiment [1]) was less than 4.52 each time.

On to `O=C(O)c1cn(C2CC2)c2cc(N3CCNCC3)c(F)cc2c1=O` [CIPROFLOXACIN], for which the MIC with Staphylococcus aureus [2], in the experiment with Raoultella planticola [4], against Escherichia coli, against Pseudomonas aeruginosa, against Staphylococcus aureus [8] and in the experiment with Micrococcus luteus [10] was 0.9 µg/mL (≈ 2.72 µM) throughout. The molecule also gave an MIC against Bacillus subtilis [11] of 0.9 µg/mL (≈ 2.72 µM). Moreover, the MBC in the experiment on Staphylococcus aureus [3] came to 0.9 µg/mL (≈ 2.72 µM); against Bacillus subtilis [5] it was 1.9 µg/mL (≈ 5.73 µM); against Micrococcus luteus [6], 0.9 µg/mL (≈ 2.72 µM); in the experiment on Staphylococcus aureus [9], 1.9 µg/mL (≈ 5.73 µM); with Raoultella planticola [13], 1.9 µg/mL (≈ 5.73 µM). Further, in the experiment with Candida albicans, the MIC entry was “inactive”. The results for the pIC50 in the experiment on Staphylococcus aureus [7], in the experiment on Raoultella planticola [12] and with Micrococcus luteus [14] were 6.15, 6.22 and 6.10, respectively.

`O=C1C=CC(=O)C(c2cc(-c3ccc(C(=O)N4CCC(C(F)(F)F)CC4)s3)on2)=C1`: the pIC50 (with A549; in experiment [1]) was less than 4.52 in each case.

Regarding `CN(C)C(=O)c1ccc(-c2cc(C3=CC(=O)C=CC3=O)no2)s1`, the pIC50 in the experiment with A549 is less than 4.52; in experiment [1], 5.14.

With `CN(Cc1ccc(F)cc1)C(=O)c1ccc(-c2cc(C3=CC(=O)C=CC3=O)no2)s1`, the pIC50 (in the experiment on A549; in experiment [1]) was less than 4.52 throughout.

For the molecule `CN(Cc1ccccc1)C(=O)c1ccc(-c2cc(C3=C(N4CC4)C(=O)C=C(N4CC4)C3=O)no2)s1`, the MIC was 62.5 µg/mL (≈ 128 µM) against Staphylococcus aureus [2]; more than 125 µg/mL with Raoultella planticola [4]; more than 125 µg/mL in the experiment on Escherichia coli; more than 125 µg/mL with Candida albicans (MTCC 3017, 24 h); more than 125 µg/mL with Pseudomonas aeruginosa; 31.2 µg/mL (≈ 64.1 µM) with Staphylococcus aureus [8]. Besides, the MIC with Micrococcus luteus [10] was 15.6 µg/mL (≈ 32.1 µM); in the experiment on Bacillus subtilis [11], 31.2 µg/mL (≈ 64.1 µM). The MBC was 62.5 µg/mL (≈ 128 µM) in the experiment with Staphylococcus aureus [3]; 125 µg/mL (≈ 257 µM) against Bacillus subtilis [5]; 62.5 µg/mL (≈ 128 µM) against Micrococcus luteus [6]; 125 µg/mL (≈ 257 µM) against Staphylococcus aureus [9]; more than 125 µg/mL in the experiment with Raoultella planticola [13]. For the same molecule, the pIC50 in the experiment on A549 is 5.14; in [1], 5.92.

Consider `CN(Cc1ccccc1)C(=O)c1ccc(-c2cc(C3=CC(=O)C=CC3=O)no2)s1`, for which the results for the pIC50 (in the experiment on A549; in [1]) were less than 4.52 and 4.96, respectively.

Consider `COc1ccc(OC)c(-c2cc(-c3ccc(C(=O)N4CCCC4)s3)on2)c1`, for which the pIC50 (in the experiment with A549; in [1]) was less than 4.52 throughout.

In the case of `O=C1C=CC(=O)C(c2cc(-c3ccc(C(=O)N4CCCC4)s3)on2)=C1`, the pIC50 is less than 4.52 in the experiment on A549 and more than 4.52 in [1].

As to `COc1ccc(OC)c(-c2cc(-c3ccc(C(=O)N(C)C)s3)on2)c1`, the pIC50 (with A549; in experiment [1]) was less than 4.52 each time.
